# Laboratory results from US20200121666A1, “TAU PHOSPHORYLATION INHIBITORS AND METHODS FOR TREATING OR PREVENTING ALZHEIMER'S DISEASE” (THE METHODIST HOSPITAL SYSTEM, priority 2017, published 2020).
# Tests used:
# p-tau (pSer396/Ser404) = test: Quantitative immunofluorescence staining in 3D AD models with high Aβ42/40 ratios; type: cell-based, human; conditions: 5 μM for 3 weeks
# Source text: FIG. 17. Validation of primary hit candidates. Primary hit candidates were confirmed using Western blot analysis (a) and quantitative immunofluorescence staining in 3D AD models with high Aβ42/40 ratios (# HReN and # A4H1) (b). PHF1 pSer396/Ser404 tau antibody was used to detect changes in phospho tau in 3D AD # HReN cells treated with DMSO vehicle, ebselen, or leflunomide.
# In addition to MSD Mesoscale ELISA shown in FIG. 16, quantitative Western blot and immunofluorescence analysis were used to validate candidate drugs. […] Ebselen and leflunomide are compounds screened from original HCS screening of […] biologically active/FDA-approved drug library. […] Moreover, quantitative immunofluorescence staining was used to analyze p-tau changes after treating these compounds.
# [1] = test system: 3D AD cell model transcriptome; test: Whole genome RNAseq after compound treatment versus control; type: cell-based, human; conditions: for immune and inflammatory related pathways (5 of 6 connected to 12 down-regulated genes): after treatment versus control; for down-regulated genes in PPI subnetwork, shared by both treatments / up-regulated genes in PPI subnetwork, shared by both treatments: |log FC|>1.5 versus control
# Source text: PPI information was extracted from STRING database version 10.5 with the cutoff for confidence score at 0.4.
# Given ebselen and leflunomide in FIG. 17, an unbiased whole genome RNAseq analysis was used to obtain transcriptomic profiles after the treatment of each compound and compare them separately to control conditions. For both treatments, a subset of genes and pathways show significant change (|log FC|>1.5) in the same direction over control condition. […] These 22 genes have 102 PPI pairs among them, and there are 7 genes directly connected to APP (coding Aβ) or MAPT (coding Tau).
# It's worth noting that the enrichment of immune and inflammatory related pathway changes is consistent with the characteristics of the 3D cell model, as this system contains astrocytes, which is one of the brain innate immune cells. […] Also, neuroinflammatory pathways are highly unregulated in high Abeta42/40 lines (D4 and H10) as compared to A5 (similar to GA2) (data not shown).
# [2] = test system: phospho-tau (AT8) in ReNCell VM cells carrying the APPSL mutation; test: High-content screen of phospho-tau (AT8) staining in 3D cultured FAD neural stem cells; type: cell-based, human; conditions: for inhibition of pTau / tau hyperphosphorylation: primary screen of 2,640 compounds, compound added from the beginning of culture, whole-well AT8 images
# Source text: FIG. 1. High-content screening. FAD-transfected neural stem cells were 3D cultured in matrigel and treated with each compound. Cells were stained with phospho-tau antibody (AT8). Images covering the whole well were taken and quantified as the readout.
# A 3D human neural culture model of AD was developed by culturing ReNCell VM cells carrying the APPSL mutation in a thin layer (50˜100 μm thick) of Matrigel. This method was then miniaturized to 96, 384, or other high content well plate formats (FIG. 1) to provide a faithful model for testing the effect of compounds on AD. However, the high-throughput screening is limited by its readout of microscopy images, which cannot be analyzed manually in large quantity.
# To enable high-throughput in vitro screening, an image-processing program was developed, based on NeuriteIQ software^17-23 (FIG. 2A), to automatically quantify tau phosphorylation from images of cultured cells. The program processes images from th e nucleus and neurite channels separately. In the nucleus channel, nuclei are detected and segmented by local maximum detection and watershed method. In the neurite channel, phospho-tau stained cells are treated as two-dimensional curvilinear structures and processed based on the local Hessian matrix^24,25, which allows the detection of center points and local directions of neurites in a field. The program reliably quantified the number of neurons with hyper-phosphorylated tau (FIG. 2B). Thus, a high-content screening system for the identification of compounds targeting the tau pathology in AD was established.
# Known drug and bioactive compounds (2,640 compounds) were selected for the initial screen from the Sigma-Aldrich LOPAC (1280), Tocriscreen Total Library (1120), and a manual selection of 240 Kinase Inhibitors. […] A few of the 38 compounds have been previously reported to inhibit tau phosphorylation in AD animal models (e.g., baicalein^26 and tretinoin^27), further validating the credibility of the screen. Most, however, are novel AD candidates.
# 3D AD model (#A5) = test: RNA-seq canonical pathway analysis of 3D AD cultures treated with anti-Aβ drugs; type: cell-based, human; conditions: anti-Aβ drug treatment versus DMSO
# Source text: FIG. 15. […] Pearson correlations of global gene expression profile among 2D undifferentiated control ReN cells, 3D control (G2# B2on), AD # A5 (# A5, moderate Aβ42/40 ratio ˜0.2), AD # D4 (# D4, high Aβ42/40 ratio, ˜1.4), and AD # H10 (# H10, extra high Aβ42/40 ratio, ˜1.7). Units are log CPM. b. Volcano plots show −log10(FDR) vs log FC distribution for G2# B2 (control) vs AD # A5 (AD), AD # A5 DMSO vs AD # A5 BSI (BACE inhibitor, Ly2886721), and AD # A5 DMSO vs AD # A5 GSM (gamma secretase modulator, SGSM15606) transcriptomic signatures. […] Canonical pathway analysis between G2# B2 and AD # A5 (Ingenuity pathway analysis, Qiagen). d. Analysis of common canonical pathways. The pathway analysis among G2# B2 vs AD # A5, AD # A5 DMSO vs AD # A5 BSI, and AD # A5 DMSO vs AD # A5 GSM. Activation z-scores indicate that majority of decreased pathways in AD # A5 are restored by BSI and/or GSM treatments. e. […]
# To examine the multiple single-clonal AD models, unbiased whole genome RNA-seq analyses were performed to compare gene expression profiles among the clonal AD models with different Aβ42/40 ratios, as compared to control 3D cultures and undifferentiated 2D control cells (FIG. 15a-d). […] Differential gene expression profile of 3D AD cultures were analyzed after treating anti-Aβ drugs (BACE1 inhibitor, Ly2886721; Gamma-secretase modulator (GSM), GSM15606) (FIG. 15b). […]
# tau phosphorylation = conditions: previously reported; cited from earlier work
# [3] = test system: pTau in AD-in-a-dish model; test: Validation of SMART-predicted compounds in the reformatted high content AD-in-a-dish model; design: species or system human; conditions: cell-based validation of 26 purchased SMART predictions
# Source text: Twenty-two of the 38 aforementioned screening hits had LINCS data covering the perturbation profiles for at least 4 cell lines. From these 22 hits, 2 were eliminated because no known drug candidates ranked high enough based on transcriptomic similarities to these two primary hits; and 3 others were removed upon inspection of the compound properties of the predictions they made, i.e., the predicted drugs may be toxic or unfit for systematic use. Thus, the 17 primary hits shown in Table 1 were used to initiate a pilot run using the SMART framework. The cMAP algorithm^7 was used to rank all compounds in the LINCSCloud, based on the similarity of transcriptomic profiles to each of the 17 primary hits. If any compound was determined by cMAP algorithm to have a similarity score larger than 90 to at least one of the primary hits, it was identified as a hit candidate. After filtering based on pharmacology features, 85 candidates predicted by 17 primary hits (Table 1) remained; 26 of these 85 compounds were purchased for validation after analysis for pharmacology and medical practice features.
structure (smiles),measurement,setting,value
Cc1oncc1C(=O)Nc1ccc(C(F)(F)F)cc1 [leflunomide],cellular viability and neurite networks,p-tau (pSer396/Ser404),without affecting
same,p-tau (pSer396/Ser404) accumulation,p-tau (pSer396/Ser404),robustly decreased
same,immune and inflammatory related pathways (5 of 6 connected to 12 down-regulated genes),[1],significantly down-regulated
same,"down-regulated genes in PPI subnetwork, shared by both treatments",[1],15 genes
same,"up-regulated genes in PPI subnetwork, shared by both treatments",[1],7 genes
"CC[N+](CC)(CC)CCOc1ccc(/C=C/c2ccccc2)cc1 [MG624, mg 624]","tau phosphorylation, late addition","[2]; compound added after week 2, when tau phosphorylation should have already developed",significantly reduced
same,"tau phosphorylation, late addition","[2]; compound added after week 4, cells fixed and stained at week 6",significantly reduced
same,inhibition of pTau / tau hyperphosphorylation,[2],almost completely inhibited
NC1=N[C@@]2(c3cc(NC(=O)c4ccc(F)cn4)ccc3F)COC[C@H]2CS1 [Ly2886721],enriched canonical pathways of the 3D AD model,3D AD model (#A5),significantly altered
COc1nc(-c2cc(C)c(NC(C)c3ccc(F)cc3)nn2)ccc1-n1cnc(C)c1 (centres unmarked) [GSM15606],enriched canonical pathways of the 3D AD model,3D AD model (#A5),significantly altered
O=c1cc(-c2ccccc2)oc2cc(O)c(O)c(O)c12 [baicalein],tau phosphorylation in AD animal models,tau phosphorylation,inhibit
Oc1c(Cl)cc(Cl)c2cccnc12 [chloroxine],inhibition of pTau,[3],validated hits
CCC(C)[C@H]1O[C@]2(CC[C@@H]1C)C[C@@H]1C[C@@H](C/C=C(\C)[C@@H](O[C@H]3C[C@H](OC)[C@@H](O[C@H]4C[C@H](OC)[C@@H](O)[C@H](C)O4)[C@H](C)O3)[C@@H](C)/C=C/C=C3\CO[C@@H]4[C@H](O)C(C)=C[C@@H](C(=O)O1)[C@]34O)O2 (some centres unmarked) [ivermectin],inhibition of pTau / tau hyperphosphorylation,[2],almost completely inhibited
same,inhibition of pTau / tau hyperphosphorylation,[2]; listed as Ivermectin,most significant phenotype
CC1=C(/C=C/C(C)=C/C=C/C(C)=C/C(=O)O)C(C)(C)CCC1 [retinoic acid],tau phosphorylation in AD animal models,tau phosphorylation,inhibit
"N=C(N)c1ccc(OCCCCCOc2ccc(C(=N)N)cc2)cc1 [pentamidine, pentamidine isethionate]",inhibition of pTau / tau hyperphosphorylation,[2],almost completely inhibited
"C1CCC(C(CC2CCCCN2)C2CCCCC2)CC1.O=C(O)/C=C\C(=O)O (centres unmarked) [Perhexiline, perhexiline maleate]",inhibition of pTau,[3],successful predictions
O=c1c2ccccc2[se]n1-c1ccccc1 [ebselen],immune and inflammatory related pathways (5 of 6 connected to 12 down-regulated genes),[1],significantly down-regulated
same,"down-regulated genes in PPI subnetwork, shared by both treatments",[1],15 genes
same,"up-regulated genes in PPI subnetwork, shared by both treatments",[1],7 genes
